From patent US8768431B2, “Systems and methods for tissue imaging” (The Regents of the University of Michigan, priority 2007, dated 2014)

How the values were obtained:
[1] = test system: 9L tumors; test: fDM / diffusion MRI of intracerebral 9L tumors after BCNU; type: in vivo, rat; details: for group mean VR: ±SEM
Experimental: (§1) Intracranial Tumor Implantation. All animal works were carried out in the animal facility of the University of Michigan (Ann Arbor, Mich.) in accordance with federal, local, and institutional guidelines. Intracerebral brain tumors were implanted in male Fischer 344 rats (Charles River Breeding Laboratories, Wilmington, Mass.) weighing between 125 and 150 g. Animals were anesthesized by intraperitoneal administration of a ketamine (87 mg/kg)/xylazine (13 mg/kg) mixture. A small skin incision was made over the right hemisphere, and a 1-mm-diameter burr hole was drilled through the skull. A sterile suspension of 1×10^5 9L cells in 5 μl of serum-free medium was introduced through a 27-gauge needle inserted to a depth of 3 mm. Rats were allowed to recover after tilling the burr hole with bone wax and suturing the skin closed.
(§2) Chemotherapy. Thirty-three animals with 9L tumors were entered into the study. When in vivo tumor volumes had reached […] were divided into four groups. Group 1 received 0.1 ml of drug vehicle (10% ethanol) and was used as a control group (n=7). Groups 2 to 4 received 6.65 mg/kg BCNU (n=7), 13.3 mg/kg BCNU (n=11), and 26.6 mg/kg BCNU (n=8), respectively, diluted in 10% ethanol. All treatments were administered by a single intraperitoneal injection on day 0. T2-weighted (T2, MRI transverse relaxation time) and diffusion MRI were performed every other day posttherapy to measure volumetric and cell density changes, respectively. Animal survival data were also obtained for all groups.
(§3) Diffusion MRI. Maps of tumor ADC values were acquired every other day up to 14 days posttherapy using a previously described method (see, e.g., Chenevert T L, et al., J Natl Cancer Inst. 2000; 92:2029-2036; herein incorporated by reference in its entirety). Briefly, a trace diffusion-weighted multislice spin echo sequence (with motion compensation and navigator echo) was used to acquire 13 slices with two different diffusion weightings [b1=100 sec/mm^2; b2=1248 sec/mm^2; image slice thickness=1 mm; image matrix=128×128 (0-256); field of view=30×30 mm; echo time=60 milliseconds]. During all MRI procedures, the animals were anesthesized with 1.5% isoflurane, and body temperature was maintained at 37° C. using a heated water-recirculating pad. The images acquired with b1 were essentially T2-weighted images, and these were used to segment the tumor from the normal brain for volumetric analysis using an “in-house” region drawing tool developed in MATLAB (Natick, Mass.).
Image Registration and fDM. An important part of fDM analysis is the registration of parametric ADC maps acquired posttherapy to baseline ADC maps acquired before treatment. Image registration was performed using an automated linear affine coregistration algorithm (MIAMI Fuse; University of Michigan, Ann Arbor, Mich.) to maximize mutual information between the two temporally distinct three-dimensional data sets (see, e.g., Meyer C R, et al., Med Image Anal. 1997; 1:195-206; herein incorporated by reference in its entirety). Following registration and tumor segmentation of voxels within the tumor both at baseline and on day 4, fDM statistics were calculated. Firstly, ADC values of voxels posttherapy were plotted as a function of baseline ADC values. These tumor voxels were then further segmented into three regions based on an upper threshold and a lower threshold of ADC change. That is, tumor voxels that had increased ADC above the upper threshold were region I (VR, red voxels), voxels that had decreased below the lower threshold were region 2 (VB, blue voxels), and all other voxels were region 3 (VG, green voxels). A comparison between treatment groups and the measurement of fDM dose dependence was accomplished to optimize the sensitivity of the thresholds used (±0.4×10^−9 m^2/sec). Normalized volumes were then calculated for each animal, and group statistics were calculated.

[2] = test system: 9L tumors; test: Animal survival of rats with intracerebral 9L tumors; type: in vivo, rat; details: for median survival: rat 9L tumors, control 7 days
Experimental: as §1, §2
(§4) Tumor Cell Kill Calculations and Statistical Analysis. The quantification of tumor cell kill from serially volumetric imaging data for each animal was accomplished as previously described (see, e.g., Ross B D, et al., Proc Natl Acad Sci USA. 1998; 95:7012-7017; herein incorporated by reference in its entirety). In brief, log(cell kill)[…]log10[Vpre/Vpost], where V represents the tumor volume from MRI. Linear least squares analysis was used to measure the statistical significance of trends in the BCNU dose dependence of fDM volume, animal survival, and log cell kill, and in the correlation of fDM response with survival and cell kill. When two groups were compared, a one-tailed Student's /test was used. Both linear least squares and Student's t test were performed using Microsoft Excel (Microsoft, Redmond, Wash.). To compare the median survival of all four animal groups, a log rank test was performed using Prism (GraphPad Software, Inc., San Diego, Calif.).

[3] = test system: 9L tumors; test: Histopathology (H&E) of fDM regions of 9L tumors; type: in vivo, rat; details: 6.67 mg/kg BCNU; ×40 objective
Experimental: Histopathology. In a separate study consisting of eight animals, two animals per treatment group were imaged pretreatment and again at 6 to 7 days posttherapy. Following the second imaging session, animals were euthanized, and the brains were fixed in 10% paraformaldehyde. After 48 hours, fixed tissues were transferred to 70% ethanol and embedded in paraffin. Formalin-fixed paraffin-embedded specimens were serially sectioned and slide-mounted. Sections were stained with hematoxylin and eosin (H&E) and compared to fDMs.

[4] = test system: 9L tumor cells; test: MRI tumor volume and log cell kill of 9L tumors; type: in vivo, rat
Experimental: as §2, §3, §4

[5] = test system: PC3^Luc metastatic bone lesions; test: fDM analysis of metastatic bone lesions of PC3Luc model; type: in vivo, SCID mice; details: for percentage of increased ADC (fDM), representative treated animal: docetaxel 40 mg/kg/wk×3
Experimental: (§5) Mice. Male SCID mice (Charles River Laboratories, Wilmington, Mass.) were housed in specific pathogen free rooms at The University of Michigan AAALAC, International accredited facilities. For implantation of PC3^Luc cells, mice were anesthetized with 1.75% isotluorane/air anesthesia and 2×10^5 cells in 100 μl of sterile Dulbecco's PBS lacking Ca^+2and Mg^+2 (DPBS) were administered into the left ventricle of the heart.
(§6) Magnetic Resonance Imaging. […] For MRI examination, mice were anesthetized with a 2% […] and maintained at 37 C, using a heated water bed, inside a 9.4-T Varian MR scanner (120-mm clear horizontal bore, Varian, Palo Alto, Calif.) and a double-tuned volume radiofrequency coil. A trace diffusion-weighted multi-slice spin echo sequence was used to acquire 15 slices with two different diffusion weightings (b1=184 s/mm^2, =1106 s/mm^2, slice thickness=0.5 mm, image matrix64×128, field of view=15×15 mm; TE=40 ms, TR=3.5 s). The z-gadient first moment was zeroed to reduce the dominant source of motion artifact as well as a 32-point navigator echo was prepended to each phase-encode echo. The phase deviation of each navigator echo relative to their mean was subtracted from the respective image echoes prior to the phase-encode Fourier transform. Images were acquired prior to treatment and subsequently 2 times per week. The low b-factor images were essentially T2-weighted to allow tumor volume measurements. The tumor boundary was manually defined on each slice and then integrated across slices to provide a volume estimate.
Image Registration and fDM. An important part of fDM analysis is the registration of post-treatment ADC maps to baseline pretreatment ADC maps. Image registration was performed using an automated linear affine coregistration algorithm to maximize mutual information between the two temporally distinct three-dimensional data sets (see, e.g., Meyer C R, et al., Med Image Anal 1997; 1:195-206; herein incorporated by reference in its entirety). Following registration and segmentation of voxels within the tumor both at baseline and on day 4, fDM statistics were calculated (I-Response™, Cedara Software, Mississauga, Ontario). Firstly, ADC values of voxels post therapy were plotted as a function of baseline ADC values. These voxels were then further segmented into three regions based on an upper and lower threshold of ADC change. Tumor voxels with an ADC increase above the upper threshold were depicted as red, whereas voxels that had decreased below the lower threshold were depicted as blue.

[6] = test system: PC3^Luc tumor cells; test: Bioluminescence imaging of PC3Luc metastatic prostate cancer model; type: in vivo, SCID mice; details: docetaxel 40 mg/kg/wk×3, n=9; controls rose continuously
Experimental: Cell Lines. PC3 cells were transfected with a luciferase-encoding pLazarus retroviral construct using Fugene 6 (Roche Applied Science, Indianapolis, Ind.) as per manufacturer's instructions. Wildtype PC3 cells were cultured in RPMI-1640 supplemented with 10% FBS whereas transfected cells (PC3^Luc were maintained in selection media supplemented with 200 μg/ml G418 (Invitrogen; Carlsbad, Calif.).
as §5
Bioluminescence Detection. […] Bioluminescence studies were initiated prior to treatment for baseline values and performed throughout the experiment. For these studies, mice were anesthetized with a 2% isofluorane/air mixture and given a single i.p. dose of 150 mg/kg D-luciferin (Promega; Madison, Wis.) in normal saline. […] Results were analyzed using Living Image® software provided with the Xenogen imaging system. Signal intensity was quantified as the sum of all detected photon counts within a uniform region-of-interest (ROI) manually placed during data post processing.

[7] = test system: PC3^Luc metastatic bone lesions; test: MRI tumor volume of PC3Luc bone lesions; type: in vivo, SCID mice
Excerpt: as §6

[8] = 6.65 mg/kg BCNU, day 4 posttreatment
[9] = 26.6 mg/kg BCNU, day 4 posttreatment
[10] = p<0.05, treated n=7 vs control n=5

## O=NN(CCCl)C(=O)NCCCl [BCNU]
[1]; 6.65 mg/kg BCNU, day 4, control −0.8±2.7%
  mean ADC change: 10.7±2.2%
[1]; 6.65 mg/kg BCNU, day 4, control 3.9±1.7
  group mean VR: 10.6±2.8%
[1]; [8]
  VB (tumor volume with decreased ADC), representative animal: 2.6%
  VR (tumor volume with increased ADC), representative animal: 7.7%
[1]; 13.3 mg/kg BCNU, day 4
  mean ADC change (ΔADC): 22.9±5.3%
  group mean VR: 28.7±8.0%
[1]; 13.3 mg/kg BCNU, day 4 posttreatment
  VR (tumor volume with increased ADC), representative animal: 30%
[1]; 26.6 mg/kg BCNU, day 4
  mean ADC change: 49.0±9.7%
  group mean VR: 62.0 ±9.0%
[1]; [9]
  VB (tumor volume with decreased ADC), representative animal: 0.3%
  VR (tumor volume with increased ADC), representative animal: 90.6%
[1]; day 4 posttreatment, threshold ±0.4×10^−9 m^2/sec, P=5.8×10^−6
  best-fit gradient of VR as a function of drug dose: 2.30 ± 0.40 kg/mg
[2]; 6.65 mg/kg BCNU single i.p.
  median survival: 13 days posttherapy
[2]; 13.3 mg/kg BCNU single i.p.
  median survival: 23.5 days posttherapy
[2]; 26.6 mg/kg BCNU single i.p.
  median survival: 35.5 days posttherapy
[2]; 6.65-26.6 mg/kg BCNU, log rank P<0.05
  animal survival relative to the control group: dose-dependent increase in animal survival
[3]
  active mitoses in low-diffusion (VB) region: 153 mitoses in 10 high-power fields
  mitoses in VR region: 96 mitoses in 10 high-power fields
[4]; 6.65 mg/kg BCNU, control −0.09±0.04
  log cell kill: −0.25±0.08
[4]; 13.3 mg/kg BCNU
  log cell kill: 1.28±0.18
[4]; 26.6 mg/kg BCNU
  log cell kill: 3.22±0.51
[4]; 4 days posttreatment, 0-26.6 mg/kg BCNU, P=0.004
  gradient of least squares fit, normalized tumor volume as a function of dose: −4.0±1.3

## CC(=O)O[C@@]12CO[C@@H]1C[C@H](O)[C@@]1(C)C(=O)[C@H](O)C3=C(C)[C@@H](OC(=O)[C@H](O)[C@@H](NC(=O)OC(C)(C)C)c4ccccc4)C[C@@](O)([C@@H](OC(=O)c4ccccc4)[C@H]21)C3(C)C [docetaxel]
[5]; day 7 post initiation
  percentage of increased ADC (fDM), representative treated animal: 4.0%
[5]; day 14 post initiation
  percentage of increased ADC (fDM), representative treated animal: 30.0%
[5]; day 18 post initiation
  percentage of increased ADC (fDM), representative treated animal: 53.7%
[5]; [10]
  time at which fDM values differ significantly from control: 7 days post-treatment
[5]; three week treatment period, treated n=7
  mean changes in tumor diffusion by fDM: progressively increasing fDM diffusion changes
[6]
  mean photon counts (luciferase activity): remained stable throughout the experiment
[7]; control tumors kept growing, treated tumors did not
  MRI tumor volumes, outcome of therapy: efficacious
[7]; [10]
  time at which tumor volumes differ significantly from control: 11 day post-treatment initiation
